Measurements from patent publication US20200071699A1, “TREATMENT OF ALZHEIMERS DISEASE WITH MICRO RNA AND GHRELIN” (priority 2018, published 2020).
Ends that are not written are not given here. * marks the point of attachment. Octanoyl = CCCCCCCC(=O)*

Tests used:
[1] = system: miR-126; assay: qPCR of capillary miR-126 after ghrelin administration; format: in vivo, mouse; conditions: 3×Tg-AD mice aged 9 months; ghrelin s.c. vs saline; P<0.05
Text: (§1) Triple transgenic mice, 3×Tg-AD, containing three mutations ([…], APP Swedish and MAPT P301L), are widely used as an animal model of FAD. Age and gender-matched B6129SF2/J strain were used as the wild type (WT) control. Mice were obtained from the Jackson Laboratory and bred in our research institute's animal facility. Mice were housed in plastic cages on a 12 hr/12 hr light/dark cycle with ad libitum access to water and standard rodent diet. Animal usage was approved by California Medical Innovations Institute (CalMI2) Institutional Animal Care and Use Committee (IACUC). The genotyping was conducted in CalMI2 animal facilities at the age of 21 days by tail DNA extraction according to our previous protocol and the online information supplied by the vendor. […]
(§2) Total RNA was purified with Trizol reagent (Invitrogen), according to the manufacturer's instructions. To quantify miR-126-3p (MIMAT0000138), miR-145-5p (MIMAT0000157), miR-195-5p (MIMAT0000225), miR-21-5p (MIMAT0000530) and miR-29b-3p (MIMAT0000127), reverse transcription and quantitative PCR (qPCR) were performed using the TaqMan@ microRNA assay kit (Applied Biosystems) as previously described. […] Relative gene expression levels between wild type and 3×Tg-AD mice were determined using the comparative Ct (2^−ΔΔCt) method after normalizing to U6.

[2] = system: pericytes coverage of capillaries; assay: Pericyte coverage of isolated capillaries after ghrelin administration; format: in vivo, mouse; conditions: 3×Tg-AD mice aged 9 months; ghrelin s.c. per day every 2 days for 2 weeks vs vehicle (saline); P<0.001
Text: as §1
(§3) The isolated microvessel fragments were smeared onto Superfrost Plus pre-cleaned glass microscope slides and fixed using ICC Fixation Buffer (BD Pharmingen) for 15 min at room temperature (RT). […] For coverage analysis, the percentage of PDGFRβ-positive pericyte area covering lectin-positive capillary area was quantified using Image J Area analysis as described previously. For the expression analysis of Aβ transporters, the area of LRP1, RAGE and Mdr1-occupied endothelium were measured as an area percentage normalized by the total area of lectin-positive capillaries using Image J Area measurement tool. […]

[3] = system: Aβ oligomers; assay: Aβ oligomers (ELISA, immunoblot) in microvessel-depleted cortex and hippocampus after ghrelin; format: in vivo, mouse
Text: as §1, with “vendor. Ten mice per strain (3×Tg-AD, B6129SF2/J) at the ages of 6, 9, and 12 months were used in this study.” for “vendor.”
The method has been described previously. […] After centrifugation at 12,000 rpm for 20 min, protein content was determined by Bradford assay. […]
Human Aβ oligomers were analyzed in the microvessel-depleted cortex and hippocampal supernatant by enzyme-linked immunosorbent assay (ELISA; IBL International, Germany) according to manufacturer's instructions. […]

[4] = system: Aβ plaque; conditions: 5×FAD mice with ghrelin treatment; cited from earlier work
[5] = system: miR-145; assay: qPCR of capillary miR-145 after ghrelin administration; format: in vivo, mouse; conditions: 3×Tg-AD mice aged 9 months; ghrelin s.c. vs saline; P<0.05
Text: as §1, §2

[6] = system: RAGE; assay: Expression of Aβ transporters in isolated capillaries after ghrelin (immunofluorescence); format: in vivo, mouse; conditions: 3×Tg-AD mice aged 9 months; ghrelin vs saline-injected group
Text: as §1, §3

[7] = system: 5 capillary miRNAs (miR-126, miR-145, miR-195, miR-21, miR-29b); assay: qPCR of 5 capillary miRNAs after ghrelin administration; format: in vivo, mouse; conditions: 9 months 3×Tg mice; ghrelin 600 μg/kg per day, every 2 days for 2 weeks S.C. vs saline
Text: as §1
as §2, with “U6. […]” for “U6.”

Which results are given for “n-octanoylated ghrelin (GSS(Octanoyl)FLSPEHQRVQQRKESKKPPAKLQPR; UniProt Q9UBU3 24-51, looked up) [neuropeptide "hunger hormone" generated from ghrelinergic cells of the gastrointestinal tract; n-octanoylated ghrelin from AnaSpec]”?
expression level of capillary miR126 from hippocampus and cerebral cortex [1]: significant increase; percentage of pericyte coverage [2]: increased significantly; level of Aβ oligomers ([3]; 3×Tg-AD mice aged 9 months, ghrelin vs vehicle, ELISA and immunoblot, vessels-depleted hippocampus and cortex, P<0.05): significantly lower level; Aβ levels (both APP and Aβ oligomers) ([3]; 9 months 3×Tg mice, ghrelin 600 μg/kg per day, every 2 days for 2 weeks S.C. vs saline, 6E10 and A11 antibodies): significantly lower; Aβ plaque burden [4]: no significant diminishment; expression level of capillary miR-145 from hippocampus and cerebral cortex [5]: significant increase; decline of relative expression of RAGE in isolated capillaries [6]: ~10%; expression levels of all 5 capillary miRNAs in hippocampus and cerebral cortex [7]: significant increase
